Data taken from US9062124B2, “GIP-based mixed agonists for treatment of metabolic disorders and obesity” (priority 2008, dated 2015).
Where a SMILES comes first, the peptide text is derived from it. Bridges are numbered along the chain shown (N, C = ends).

Assays:
Type in all cases: cell-based
[1] = system: glucagon receptor, GLP-1 receptor or GIP receptor; assay: Agonist profile across receptors assigned from the cAMP reporter assay data; conditions: assigned from the in vitro EC50 data of Tables 1-4
GIP receptor = biological target: T1, GIP receptor (Homo sapiens, UniProt P48546); assay: cAMP synthesis functional assay (firefly luciferase reporter in HEK293 cells), GIP receptor; conditions: Table 1; relative to the native hormone of the indicated receptor
T1 construct: expressed in transfected cells; host or cells: HEK293
T1 sequence (P48546 22-466): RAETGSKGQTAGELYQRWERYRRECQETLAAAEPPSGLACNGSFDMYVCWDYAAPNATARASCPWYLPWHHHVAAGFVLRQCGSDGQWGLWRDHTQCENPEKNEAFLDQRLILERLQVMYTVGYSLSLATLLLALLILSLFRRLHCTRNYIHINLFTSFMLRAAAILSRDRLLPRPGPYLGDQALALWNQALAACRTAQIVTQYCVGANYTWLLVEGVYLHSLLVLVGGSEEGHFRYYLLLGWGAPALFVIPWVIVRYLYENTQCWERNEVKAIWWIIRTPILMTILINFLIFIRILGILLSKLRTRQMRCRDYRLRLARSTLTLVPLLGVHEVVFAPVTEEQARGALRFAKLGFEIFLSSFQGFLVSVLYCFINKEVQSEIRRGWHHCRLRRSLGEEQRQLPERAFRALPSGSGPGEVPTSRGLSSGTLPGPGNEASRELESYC

GLP-1 receptor = biological target: T2, GLP-1 receptor (Homo sapiens, UniProt P43220); assay: cAMP synthesis functional assay (firefly luciferase reporter in HEK293 cells), GLP-1 receptor; conditions: Table 1; for GLP-1 Receptor relative activity: relative to the native hormone of the indicated receptor; for EC50: GLP-1 Receptor EC50, nM
T2 construct: expressed in transfected cells; host or cells: HEK293

glucagon receptor = biological target: T3, glucagon receptor (Homo sapiens, UniProt P47871); assay: cAMP synthesis functional assay (firefly luciferase reporter in HEK293 cells), glucagon receptor; conditions: Table 1; relative to the native hormone of the indicated receptor
T3 construct: expressed in transfected cells; host or cells: HEK293
T3 sequence (P47871 26-477): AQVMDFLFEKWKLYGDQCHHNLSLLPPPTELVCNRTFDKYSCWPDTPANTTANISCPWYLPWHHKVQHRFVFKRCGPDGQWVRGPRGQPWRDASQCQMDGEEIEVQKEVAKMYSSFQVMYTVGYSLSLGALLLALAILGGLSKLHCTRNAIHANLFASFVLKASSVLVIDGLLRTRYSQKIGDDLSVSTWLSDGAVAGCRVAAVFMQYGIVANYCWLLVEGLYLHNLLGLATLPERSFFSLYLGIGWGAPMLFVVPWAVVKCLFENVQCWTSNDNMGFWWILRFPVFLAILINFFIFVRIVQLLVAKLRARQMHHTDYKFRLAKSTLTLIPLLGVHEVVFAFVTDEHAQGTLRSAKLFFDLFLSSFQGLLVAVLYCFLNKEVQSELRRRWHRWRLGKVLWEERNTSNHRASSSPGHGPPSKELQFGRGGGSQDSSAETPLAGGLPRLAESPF

T2 sequence (P43220 24-463, species assumed): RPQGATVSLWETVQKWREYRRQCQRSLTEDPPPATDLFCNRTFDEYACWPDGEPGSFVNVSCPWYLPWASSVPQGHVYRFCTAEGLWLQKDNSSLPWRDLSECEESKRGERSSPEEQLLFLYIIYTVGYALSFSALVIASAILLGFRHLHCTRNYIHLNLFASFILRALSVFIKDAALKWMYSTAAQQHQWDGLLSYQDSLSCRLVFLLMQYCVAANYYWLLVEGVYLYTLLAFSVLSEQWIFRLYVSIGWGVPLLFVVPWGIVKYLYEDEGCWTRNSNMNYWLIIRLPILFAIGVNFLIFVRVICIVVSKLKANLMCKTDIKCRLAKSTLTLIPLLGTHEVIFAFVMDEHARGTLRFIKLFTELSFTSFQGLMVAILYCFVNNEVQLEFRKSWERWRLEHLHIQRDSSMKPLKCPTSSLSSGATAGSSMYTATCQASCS

SMILES	receptor activity profile (glucagon / GLP-1 / GIP agonism) [1]	GIP Receptor relative activity (GIP receptor)	GLP-1 Receptor relative activity (GLP-1 receptor)	Glucagon Receptor relative activity (glucagon receptor)	EC50 (GLP-1 receptor)
CC[C@H](C)[C@@H]1NC(=O)[C@@H](NC(=O)[C@H](CC(=O)O)NC(=O)[C@H](CC(C)C)NC(=O)[C@H](Cc2ccc(O)cc2)NC(=O)[C@H](CCCCN)NC(=O)[C@H](CO)NC(=O)[C@H](Cc2ccc(O)cc2)NC(=O)[C@H](CC(=O)O)NC(=O)[C@H](CO)NC(=O)[C@@H](NC(=O)[C@H](Cc2ccccc2)NC(=O)[C@@H](NC(=O)CNC(=O)[C@H](CCC(N)=O)NC(=O)[C@H](CO)NC(=O)[C@@H](N)Cc2ccc(O)cc2)[C@@H](C)O)[C@@H](C)O)CCC(=O)NCCCC[C@@H](C(=O)N[C@@H](CC(=O)O)C(=O)N[C@@H](Cc2ccccc2)C(=O)N[C@H](C(=O)N[C@@H](CC(N)=O)C(=O)N[C@@H](Cc2c[nH]c3ccccc23)C(=O)N[C@@H](CC(C)C)C(=O)N[C@@H](CC(C)C)C(=O)N[C@@H](C)C(=O)NCC(=O)NCC(=O)N2CCC[C@H]2C(=O)N[C@@H](CO)C(=O)N[C@@H](CO)C(=O)NCC(=O)N[C@@H](C)C(=O)N2CCC[C@H]2C(=O)N2CCC[C@H]2C(=O)N2CCC[C@H]2C(=O)N[C@@H](CO)C(N)=O)C(C)C)NC(=O)[C@H](CCC(N)=O)NC(=O)[C@H](Cc2c[nH]cn2)NC1=O [mt-116] (H-YSQGTFTSDYSKYLDEIHQKDFVNWLLAGGPSSGAPPPS-NH2; lactam 16-20; N-terminus assumed)	exemplary GIP/glucagon co-agonist peptides	7.62%	1.07%	18.68%	
CC[C@H](C)[C@H](NC(=O)[C@H](CO)NC(=O)[C@H](Cc1ccc(O)cc1)NC(=O)[C@H](CC(=O)O)NC(=O)[C@H](CO)NC(=O)[C@@H](NC(=O)[C@H](Cc1ccccc1)NC(=O)[C@@H](NC(=O)CNC(=O)[C@H](CCC(N)=O)NC(=O)[C@H](CO)NC(=O)[C@@H](N)Cc1ccc(O)cc1)[C@@H](C)O)[C@@H](C)O)C(=O)N[C@@H](Cc1ccc(O)cc1)C(=O)N[C@@H](CC(C)C)C(=O)N[C@@H](CC(=O)O)C(=O)N[C@H]1CCC(=O)NCCCC[C@@H](C(=O)N[C@@H](CCC(=O)O)C(=O)N[C@@H](Cc2ccccc2)C(=O)N[C@H](C(=O)N[C@@H](CC(N)=O)C(=O)N[C@@H](Cc2c[nH]c3ccccc23)C(=O)N[C@@H](CC(C)C)C(=O)N[C@@H](CC(C)C)C(=O)N[C@@H](C)C(=O)NCC(=O)NCC(=O)N2CCC[C@H]2C(=O)N[C@@H](CO)C(=O)N[C@@H](CO)C(=O)NCC(=O)N[C@@H](C)C(=O)N2CCC[C@H]2C(=O)N2CCC[C@H]2C(=O)N2CCC[C@H]2C(=O)N[C@@H](CO)C(N)=O)C(C)C)NC(=O)[C@H](C)NC(=O)[C@H](C)NC(=O)[C@H](CCC(N)=O)NC1=O [mt-140] (H-YSQGTFTSDYSIYLDEQAAKEFVNWLLAGGPSSGAPPPS-NH2; lactam 16-20; N-terminus assumed)	exemplary GLP-1/GIP/glucagon triagonist peptides	12.85%	49.56%	131.15%	
CC[C@H](C)[C@H](NC(=O)[C@H](Cc1ccccc1)NC(=O)[C@H](CCC(=O)O)NC(=O)[C@@H]1CCCCNC(=O)CC[C@H](NC(=O)[C@H](CC(=O)O)NC(=O)[C@H](CC(C)C)NC(=O)[C@H](Cc2ccc(O)cc2)NC(=O)[C@@H](NC(=O)[C@H](CO)NC(=O)[C@H](Cc2ccc(O)cc2)NC(=O)[C@H](CC(=O)O)NC(=O)[C@H](CO)NC(=O)[C@@H](NC(=O)[C@H](Cc2ccccc2)NC(=O)[C@@H](NC(=O)CNC(=O)[C@H](CCC(N)=O)NC(=O)[C@H](CO)NC(=O)[C@@H](N)Cc2ccc(O)cc2)[C@@H](C)O)[C@@H](C)O)[C@@H](C)CC)C(=O)N[C@@H](CCC(N)=O)C(=O)N[C@@H](C)C(=O)N[C@@H](C)C(=O)N1)C(=O)N[C@@H](C)C(=O)N[C@@H](Cc1c[nH]c2ccccc12)C(=O)N[C@@H](CC(C)C)C(=O)N[C@@H](CC(C)C)C(=O)N[C@@H](C)C(=O)NCC(=O)NCC(=O)N1CCC[C@H]1C(=O)N[C@@H](CO)C(=O)N[C@@H](CO)C(=O)NCC(=O)N[C@@H](C)C(=O)N1CCC[C@H]1C(=O)N1CCC[C@H]1C(=O)N1CCC[C@H]1C(=O)N[C@@H](CO)C(N)=O [mt-147] (H-YSQGTFTSDYSIYLDEQAAKEFIAWLLAGGPSSGAPPPS-NH2; lactam 16-20; N-terminus assumed)	exemplary GLP-1/GIP/glucagon triagonist peptides	43.06%	33.87%	90.52%	
CC[C@H](C)[C@H](NC(=O)[C@H](Cc1ccccc1)NC(=O)[C@H](CCC(=O)O)NC(=O)[C@@H]1CCCCNC(=O)CC[C@H](NC(=O)[C@H](CC(=O)O)NC(=O)[C@H](CC(C)C)NC(=O)[C@H](Cc2ccc(O)cc2)NC(=O)[C@@H](NC(=O)[C@H](CO)NC(=O)[C@H](Cc2ccc(O)cc2)NC(=O)[C@H](CC(=O)O)NC(=O)[C@H](CO)NC(=O)[C@@H](NC(=O)[C@H](Cc2ccccc2)NC(=O)[C@@H](NC(=O)CNC(=O)[C@H](CCC(=O)O)NC(=O)[C@H](CO)NC(=O)[C@@H](N)Cc2ccc(O)cc2)[C@@H](C)O)[C@@H](C)O)[C@@H](C)CC)C(=O)N[C@@H](CCC(N)=O)C(=O)N[C@@H](C)C(=O)N[C@@H](C)C(=O)N1)C(=O)N[C@@H](C)C(=O)N[C@@H](Cc1c[nH]c2ccccc12)C(=O)N[C@@H](CC(C)C)C(=O)N[C@@H](CC(C)C)C(=O)N[C@@H](C)C(=O)NCC(=O)NCC(=O)N1CCC[C@H]1C(=O)N[C@@H](CO)C(=O)N[C@@H](CO)C(=O)NCC(=O)N[C@@H](C)C(=O)N1CCC[C@H]1C(=O)N1CCC[C@H]1C(=O)N1CCC[C@H]1C(=O)N[C@@H](CO)C(N)=O [mt-148] (H-YSEGTFTSDYSIYLDEQAAKEFIAWLLAGGPSSGAPPPS-NH2; lactam 16-20; N-terminus assumed)	exemplary GLP-1/GIP co-agonist peptides	65.26%	36.22%	2.14%	0.098 nM
CC[C@H](C)[C@H](NC(=O)[C@H](CO)NC(=O)[C@H](Cc1ccc(O)cc1)NC(=O)[C@H](CC(=O)O)NC(=O)[C@H](CO)NC(=O)[C@@H](NC(=O)[C@H](Cc1ccccc1)NC(=O)[C@@H](NC(=O)CNC(=O)[C@H](CCC(=O)O)NC(=O)[C@H](C)NC(=O)[C@@H](N)Cc1ccc(O)cc1)[C@@H](C)O)[C@@H](C)O)C(=O)N[C@@H](Cc1ccc(O)cc1)C(=O)N[C@@H](CC(C)C)C(=O)N[C@@H](CC(=O)O)C(=O)N[C@H]1CCC(=O)NCCCC[C@@H](C(=O)N[C@@H](CCC(=O)O)C(=O)N[C@@H](Cc2ccccc2)C(=O)N[C@H](C(=O)N[C@@H](CC(N)=O)C(=O)N[C@@H](Cc2c[nH]c3ccccc23)C(=O)N[C@@H](CC(C)C)C(=O)N[C@@H](CC(C)C)C(=O)N[C@@H](C)C(=O)NCC(=O)NCC(=O)N2CCC[C@H]2C(=O)N[C@@H](CO)C(=O)N[C@@H](CO)C(=O)NCC(=O)N[C@@H](C)C(=O)N2CCC[C@H]2C(=O)N2CCC[C@H]2C(=O)N2CCC[C@H]2C(=O)N[C@@H](CO)C(N)=O)C(C)C)NC(=O)[C@H](C)NC(=O)[C@H](C)NC(=O)[C@H](CCC(N)=O)NC1=O [mt-149] (H-YAEGTFTSDYSIYLDEQAAKEFVNWLLAGGPSSGAPPPS-NH2; lactam 16-20; N-terminus assumed)	exemplary GLP-1/GIP co-agonist peptides	91.18%	97.53%	0.64%	0.036 nM
CC[C@H](C)[C@H](NC(=O)[C@H](Cc1ccccc1)NC(=O)[C@H](CCC(=O)O)NC(=O)[C@@H]1CCCCNC(=O)CC[C@H](NC(=O)[C@H](CC(=O)O)NC(=O)[C@H](CC(C)C)NC(=O)[C@H](Cc2ccc(O)cc2)NC(=O)[C@H](CCCCN)NC(=O)[C@H](CO)NC(=O)[C@H](Cc2ccc(O)cc2)NC(=O)[C@H](CC(=O)O)NC(=O)[C@H](CO)NC(=O)[C@@H](NC(=O)[C@H](Cc2ccccc2)NC(=O)[C@@H](NC(=O)CNC(=O)[C@H](CCC(N)=O)NC(=O)[C@H](CO)NC(=O)[C@@H](N)Cc2ccc(O)cc2)[C@@H](C)O)[C@@H](C)O)C(=O)N[C@@H](CCC(N)=O)C(=O)N[C@@H](C)C(=O)N[C@@H](C)C(=O)N1)C(=O)N[C@@H](C)C(=O)N[C@@H](Cc1c[nH]c2ccccc12)C(=O)N[C@@H](CC(C)C)C(=O)N[C@@H](CC(C)C)C(=O)N[C@@H](C)C(=O)NCC(=O)NCC(=O)N1CCC[C@H]1C(=O)N[C@@H](CO)C(=O)N[C@@H](CO)C(=O)NCC(=O)N[C@@H](C)C(=O)N1CCC[C@H]1C(=O)N1CCC[C@H]1C(=O)N1CCC[C@H]1C(=O)N[C@@H](CO)C(N)=O [mt-151] (H-YSQGTFTSDYSKYLDEQAAKEFIAWLLAGGPSSGAPPPS-NH2; lactam 16-20; N-terminus assumed)	exemplary GLP-1/GIP/glucagon triagonist peptides	7.28%	30.16%	30.16%	
